Assay results reported in patent US20230416330A1, “Optimized GIP Peptide Analogues” (Antag Therapeutics ApS, priority 2019, published 2023).
Like-named read-outs stand apart in the source and are kept apart here. Starred links: 1 amine or outer side, 2 acyl side, 3 side chain; linkers in the order of their positions; H or OH if unused. Non-standard residues stand in square brackets, D forms with d. Residues, ends and D or L forms follow the SMILES beside them. Groups on a side chain read outwards from the residue. *: point of attachment. C16 diacid = O=C(O)CCCCCCCCCCCCCCC(=O)*; γGlu = O=C(O)[C@H](CCC(=O)[*:2])N[*:1]; Aib = CC(C)(N)C(=O)O

Assays:
human GIP receptor = molecular target: T1, human GIP receptor (Homo sapiens, UniProt P48546); assay: cAMP assay Alternative 2 (Gaddum assay), antagonist potency pKb; type: cell-based
T1 construct: host or cells: HEK-293 cells, transient transfection (Lipofectamine 2000), cDNA in pCMV-Script vector
T1 sequence (P48546 22-466): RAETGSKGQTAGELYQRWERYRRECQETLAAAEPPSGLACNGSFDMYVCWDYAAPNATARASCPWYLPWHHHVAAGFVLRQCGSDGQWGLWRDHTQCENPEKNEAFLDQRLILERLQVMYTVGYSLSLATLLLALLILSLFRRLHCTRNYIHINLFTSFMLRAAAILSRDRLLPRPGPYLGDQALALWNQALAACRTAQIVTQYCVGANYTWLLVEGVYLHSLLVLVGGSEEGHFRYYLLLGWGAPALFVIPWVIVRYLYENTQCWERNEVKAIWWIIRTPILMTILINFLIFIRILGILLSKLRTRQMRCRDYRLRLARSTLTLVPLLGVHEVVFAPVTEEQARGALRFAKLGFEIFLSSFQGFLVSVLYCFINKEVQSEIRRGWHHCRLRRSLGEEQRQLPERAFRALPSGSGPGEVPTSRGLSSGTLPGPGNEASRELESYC
Procedure: HEK293 cells were cultured in 10% CO2 and 37° C. in Dulbecco's modified Eagle's medium supplemented with 10% fetal bovine serum, 2 mM glutamine, 180 units/ml penicillin, and 45 µg/ml streptomycin. Transient transfection with hGIPR for the CisBio assay from Table 2C was performed by using Lipofectamine 2000.
Antagonist potency (pKb) was estimated in a functional setting. The estimated pKb values were calculated from the shifts of the agonist-concentration-response curves in the presence of a single dose of GIP peptide antagonists using the Gaddum equation: pKb=log(DR-1)-log(B), where DR (EC50′/EC50) is the dose ratio calculated from EC50 of GIP1-42 obtained in the presence and absence (EC50) of antagonist, and B is the antagonist concentration used.
The in vitro functional assessment of compounds towards human GIP receptor was determined in HEK-293 cells transiently expressing the receptor. On the day of the assay, cells were resuspended in HBSS buffer (Gibco, 14025-50) supplemented with […] (Gibco, 15630-106), 0.1% Pluronic F-68 (Gibco, 24040-032) and 0.1% casein (Sigma, C4765), and plated in 384-well plates at a density of 3500 cells/well. The GIP peptide analogues of the present disclosure were diluted in HBSS buffer supplemented with 20 mM HEPES, 0.1% pluronic, 0.1% casein and 500 uM IBMX. […] Increasing dose of agonist (GIP1-42) was subsequently added to cells and incubated for additionally 30 min at 37° C. The intracellular cAMP was quantitatively determined using the CisBio cAMP Dynamic 2 HTRF Assay Kit. The assay is based on a competition between native cAMP produced by cells and cAMP labeled with the dye d2 for binding to a cryptate labeled antibody. The specific signal (i.e. energy transfer signal) is inversely proportional to the concentration of cAMP in the sample.
The cAMP-d2 conjugate and the antibody anti-cAMP-Cryptate, both diluted in lysis buffer provided in the kit, were added to the cells according to the manufacturer's protocol. The resulting competitive assay was incubated for 60 minutes at room temperature, and the signal was detected by using a PerkinElmer Envision® instrument with excitation at 320 nm and emission at 665 nm and 620 nm. The HTRF ratio (emission at 665 nm/620 nm*10,000) is inversely proportional to the amount of cAMP present and is converted to nM cAMP per well using a cAMP standard curve.

[1] = Physical stability: fibril formation in Thioflavin T (ThT) assay with agitation; type: physicochemical; details: 25° C., agitation
Procedure, shortened: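 Read-out is continuous ThT fluorescence at 486 nm, with lag time taken where signal reaches 10% between pre- and post-transition baselines. Filtered samples (1, 5, 7.5 or 15 mg/ml; pH 7.4 phosphate buffer or NaOH-adjusted water) were stressed at 25° C. by orbital rotation at 300 rpm with one silica bead per well.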

[2] = Solubility by visual inspection of peptide solutions; type: physicochemical
Procedure, shortened: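 Solubility scored by eye: clear, colorless appearance after gentle mixing. Samples prepared at 1, 5, 7.5 or 15 mg/ml in either pH 7.4 water (NaOH-adjusted) or 50 mM sodium phosphate buffer, pH 7.4.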

| Structure (SMILES) | Kb (human GIP receptor; Table 2C, Gaddum equation, single antagonist dose, HEK-293 hGIPR, read-out: nM (Kb)) [nM] | Avr lag time (h) ([1]; 7.5 mg/ml, Na, MilliQ (8)) | Avr lag time (h) ([1]; 15 mg/ml, Na, MilliQ (8)) | Visual appearance ([2]; 7.5 mg/ml, Na, MilliQ (8)) | Visual appearance ([2]; 15 mg/ml, Na, MilliQ (8)) | Kb (human GIP receptor) [nM] | Avr lag time (h) ([1]; 1 mg/ml, TFA, Phosphate (7.4)) | Visual appearance ([2]; 1 mg/ml, TFA, Phosphate (7.4)) |
| --- | --- | --- | --- | --- | --- | --- | --- | --- |
| CC[C@H](C)[C@H](NC(=O)[C@H](CCCCN)NC(=O)[C@H](CCC(=O)O)NC(=O)[C@H](CC(C)C)NC(=O)C(C)(C)NC(=O)[C@@H](NC(=O)[C@H](CO)NC(=O)[C@H](Cc1ccc(O)cc1)NC(=O)[C@H](CCC(=O)O)NC(=O)[C@H](CO)NC(=O)[C@@H](NC(=O)[C@H](Cc1ccccc1)NC(=O)[C@@H](NC(=O)CNC(=O)[C@@H](N)CCC(=O)O)[C@@H](C)O)[C@@H](C)CC)[C@@H](C)CC)C(=O)N[C@@H](CCCCNC(=O)CC[C@H](NC(=O)CCCCCCCCCCCCCCC(=O)O)C(=O)O)C(=O)N[C@@H](CCC(N)=O)C(=O)N[C@@H](CCC(N)=O)C(=O)N[C@@H](CCC(=O)O)C(=O)N[C@@H](Cc1ccccc1)C(=O)N[C@H](C(=O)N[C@@H](CCC(=O)O)C(=O)N[C@@H](Cc1c[nH]c2ccccc12)C(=O)N[C@@H](CC(C)C)C(=O)N[C@@H](CC(C)C)C(=O)N[C@@H](C)C(=O)N[C@@H](CCC(N)=O)C(=O)N[C@@H](CCCCN)C(=O)N1CCC[C@H]1C(=O)N[C@@H](CO)C(=O)N[C@@H](CO)C(=O)NCC(=O)N[C@@H](C)C(=O)N1CCC[C@H]1C(=O)N1CCC[C@H]1C(=O)N1CCC[C@H]1C(=O)N[C@@H](CO)C(=O)O)C(C)C [AT721] (H-EGTFISEYSI[Aib]LEKIK([γGlu-C16 diacid])QQEFVEWLLAQKPSSGAPPPS-OH; N-terminus assumed) | 0.31 | fnd (Fnd = fibrils not detected within experiment time (96 hours) with agitation.) | fnd (Fnd = fibrils not detected within experiment time (96 hours) with agitation.) | Clear | Clear |  |  |  |
| CC[C@H](C)[C@H](NC(=O)[C@H](CCCCN)NC(=O)[C@H](CC(=O)O)NC(=O)[C@H](CCSC)NC(=O)[C@H](C)NC(=O)[C@H](CCCCNC(=O)CCCCCCCCCCCCCCC(=O)O)NC(=O)[C@H](CO)NC(=O)[C@H](Cc1ccc(O)cc1)NC(=O)[C@H](CC(=O)O)NC(=O)[C@H](CO)NC(=O)[C@@H](NC(=O)[C@H](Cc1ccccc1)NC(=O)[C@@H](NC(=O)CNC(=O)[C@@H](N)CCC(=O)O)[C@@H](C)O)[C@@H](C)CC)C(=O)N[C@@H](Cc1c[nH]cn1)C(=O)N[C@@H](CCC(N)=O)C(=O)N[C@@H](CCC(N)=O)C(=O)N[C@@H](CC(=O)O)C(=O)N[C@@H](Cc1ccccc1)C(=O)N[C@H](C(=O)N[C@@H](CCC(=O)O)C(=O)N[C@@H](Cc1c[nH]c2ccccc12)C(=O)N[C@@H](CC(C)C)C(=O)N[C@@H](CC(C)C)C(=O)N[C@@H](C)C(=O)N[C@@H](CCC(N)=O)C(=O)N[C@@H](CCCCN)C(=O)N1CCC[C@H]1C(=O)N[C@@H](CO)C(=O)N[C@@H](CO)C(=O)NCC(=O)N[C@@H](C)C(=O)N1CCC[C@H]1C(=O)N1CCC[C@H]1C(=O)N1CCC[C@H]1C(=O)N[C@@H](CO)C(=O)O)C(C)C [AT739] (H-EGTFISDYSK(C16 diacid)AMDKIHQQDFVEWLLAQKPSSGAPPPS-OH; N-terminus assumed) |  |  |  |  |  | 11 | fnd (Fnd = fibrils not detected within experiment time (96 hours) with agitation.) | Clear |
| CC[C@H](C)[C@H](NC(=O)[C@H](CCCCN)NC(=O)[C@H](CC(=O)O)NC(=O)[C@H](CCSC)NC(=O)[C@H](CCCCNC(=O)CCCCCCCCCCCCCCC(=O)O)NC(=O)[C@@H](NC(=O)[C@H](CO)NC(=O)[C@H](Cc1ccc(O)cc1)NC(=O)[C@H](CC(=O)O)NC(=O)[C@H](CO)NC(=O)[C@@H](NC(=O)[C@H](Cc1ccccc1)NC(=O)[C@@H](NC(=O)CNC(=O)[C@@H](N)CCC(=O)O)[C@@H](C)O)[C@@H](C)CC)[C@@H](C)CC)C(=O)N[C@@H](Cc1c[nH]cn1)C(=O)N[C@@H](CCC(N)=O)C(=O)N[C@@H](CCC(N)=O)C(=O)N[C@@H](CC(=O)O)C(=O)N[C@@H](Cc1ccccc1)C(=O)N[C@H](C(=O)N[C@@H](CCC(=O)O)C(=O)N[C@@H](Cc1c[nH]c2ccccc12)C(=O)N[C@@H](CC(C)C)C(=O)N[C@@H](CC(C)C)C(=O)N[C@@H](C)C(=O)N[C@@H](CCC(N)=O)C(=O)N[C@@H](CCCCN)C(=O)N1CCC[C@H]1C(=O)N[C@@H](CO)C(=O)N[C@@H](CO)C(=O)NCC(=O)N[C@@H](C)C(=O)N1CCC[C@H]1C(=O)N1CCC[C@H]1C(=O)N1CCC[C@H]1C(=O)N[C@@H](CO)C(=O)O)C(C)C [AT740] (H-EGTFISDYSIK(C16 diacid)MDKIHQQDFVEWLLAQKPSSGAPPPS-OH; N-terminus assumed) |  |  |  |  |  | 14 | fnd (Fnd = fibrils not detected within experiment time (96 hours) with agitation.) | Clear |
| CC[C@H](C)[C@H](NC(=O)[C@H](CO)NC(=O)[C@H](Cc1ccc(O)cc1)NC(=O)[C@H](CC(=O)O)NC(=O)[C@H](CO)NC(=O)[C@@H](NC(=O)[C@H](Cc1ccccc1)NC(=O)[C@@H](NC(=O)CNC(=O)[C@@H](N)CCC(=O)O)[C@@H](C)O)[C@@H](C)CC)C(=O)N[C@@H](C)C(=O)N[C@@H](CCSC)C(=O)N[C@@H](CC(=O)O)C(=O)N[C@@H](CCCCNC(=O)CCCCCCCCCCCCCCC(=O)O)C(=O)N[C@H](C(=O)N[C@@H](Cc1c[nH]cn1)C(=O)N[C@@H](CCC(N)=O)C(=O)N[C@@H](CCC(N)=O)C(=O)N[C@@H](CC(=O)O)C(=O)N[C@@H](Cc1ccccc1)C(=O)N[C@H](C(=O)N[C@@H](CCC(=O)O)C(=O)N[C@@H](Cc1c[nH]c2ccccc12)C(=O)N[C@@H](CC(C)C)C(=O)N[C@@H](CC(C)C)C(=O)N[C@@H](C)C(=O)N[C@@H](CCC(N)=O)C(=O)N[C@@H](CCCCN)C(=O)N1CCC[C@H]1C(=O)N[C@@H](CO)C(=O)N[C@@H](CO)C(=O)NCC(=O)N[C@@H](C)C(=O)N1CCC[C@H]1C(=O)N1CCC[C@H]1C(=O)N1CCC[C@H]1C(=O)N[C@@H](CO)C(=O)O)C(C)C)[C@@H](C)CC [AT741] (H-EGTFISDYSIAMDK(C16 diacid)IHQQDFVEWLLAQKPSSGAPPPS-OH; N-terminus assumed) |  |  |  |  |  | 11 | fnd (Fnd = fibrils not detected within experiment time (96 hours) with agitation.) | Clear |
